Experimental data as given in article PMC8162404, “Proteomimetic surface fragments distinguish targets by function” (Chemical Science, 2020).

Biological target: T1, CaM (Bos taurus, UniProt P62157)
T1 construct: made in house; host or cells: E. coli BL21 (DE3)
Assay: Pull-down assay with immobilized protein and LSM libraries
Format: binding, bovine
Conditions: H12 library; 1:2 stoichiometry assumed; read-out: Surface mapping KD (apparent)
Protocol: Pull-down assays with immobilized test proteins and foldameric LSM libraries were carried out. Proteins were equilibrated with LSM probes, and equilibrium bound fractions (FB) were determined from the unbound fractions measured by HPLC-MS methods. Hits were corrected with background binding of the resin. The protocol allowed all binding events to equilibrate irrespective of affinity, specificity, and binding kinetics. This was essential to judge overall druggability and promiscuity. Importantly, the concentration of protein and the total concentration of foldameric LSMs were equimolar, which minimized competition between the probes. This experimental setup approximated independent binding of individual library members. Results were visualized as heat maps of dissociation constants (Fig. 3).
Pull-down assay and data analysis
Pull-down assay. LSM sublibraries were screened separately as previously described.(2) Experiments were performed in the following buffers: (i) 20 mM pH 7.4 HEPES, 150 mM NaCl, 5 mM CaCl2 for CaM; (ii) 50 mM pH 7.4 HEPES, 150 mM NaCl, 1 mM TCEP, 1 mM CaCl2 for S100 proteins; (iii) 20 mM pH 7.4 HEPES, 150 mM NaCl, 1 mM TCEP for Gal-1 and (iv) 20 mM pH 7.4 HEPES, 150 mM NaCl for RecQ-WH. Assays were performed in paper filter spin cups (Thermo Scientific) with sample volumes of 100 µl. Hexahistidine-tagged proteins were immobilized on previously washed Co-NTA resin (TALON, Takara Bio USA, Inc., […]
LSM sublibrary was added, in which each of the 64 library members were used at a concentration of 1 µM. Samples were incubated at room temperature for 30 min with shaking at 100 rpm. Then, samples were centrifuged at 1000 rpm for 2 min and washed with 100 µl pull-down buffer to remove unbound compounds.
The control experiments were performed using the same compounds and the resin but without the immobilized protein. In case of competitive assays, competitor peptides were added to LSM sublibrary samples in 200 µM final concentration. In the case of Gal-1, lactose (competitor) was used in a concentration of 10 mM. Experiments were performed at least twice. Mean […]
LC-MS methods and parameters. HPLC/ESI-MS analysis was used to characterize the samples from the pull-down assay. LC-MS analysis was performed with a Thermo Scientific Dionex UltiMate 3000 HPLC system interfaced to an LTQ ion trap mass spectrometer (Thermo Electron Corp., San Jose, CA, USA). Samples were injected onto an Aeris Widepore XB-C18 (250 x 4.6 mm) analytical HPLC column using gradient elution 5-80 % solution B during 25 minutes. For pull-down samples, eluent composition was 0.1% acetic acid in distilled water (Solution A) and 0.1% acetic acid in acetonitrile (solution B). Mass spectra were acquired in full scan mode from 200 to 2000 m/z range. For overlapping peaks, selective reaction monitoring (SRM) was […]
MS data analysis. Thermo Xcalibur 2.2 software was used for peak identification and integration. The majority of the foldameric fragments could be resolved independently via HPLC-MS/MS measurements based on molecular weight, MS fragmentation pattern and retention time. Peaks of some foldamers with β3-hIle or β3-hLeu in position R2 could not be resolved, these were integrated and averaged. In the processing method, each sample component was associated to a chromatographic peak based on previously identified mass (m/z) and retention time (ref (2) and Table S7-10). Using ICIS peak detection algorithm, the general detection and integration criteria were: smoothing points: 5, baseline window: 80, area noise factor: 5, peak noise factor: 10. Using these processing setups, all raw data files were reprocessed together and analyzed. Errors in peak identification during the automatic processing were corrected manually.
Calculation of the discussed parameters
1. Bound fractions (FB.) were calculated from the HPLC-MS intensity loss of the LSM probes compared to the control where no protein was immobilized to the resin: […]

| SMILES | Kd [µM] |
| --- | --- |
| CSCC[C@@H](CC(=O)N[C@H]1CCC[C@@H]1C(=O)N[C@H]1CCC[C@@H]1C(N)=O)NC(=O)[C@H]1CCC[C@@H]1NC(=O)[C@H]1CCC[C@@H]1NC(=O)C[C@H](CCC(N)=O)NC(=O)[C@H]1CCC[C@@H]1NC(=O)[C@H]1CCC[C@@H]1N [H12 QM] | 364 |
| C[C@@H](CC(=O)N[C@H]1CCC[C@@H]1C(=O)N[C@H]1CCC[C@@H]1C(N)=O)NC(=O)[C@H]1CCC[C@@H]1NC(=O)[C@H]1CCC[C@@H]1NC(=O)C[C@H](CO)NC(=O)[C@H]1CCC[C@@H]1NC(=O)[C@H]1CCC[C@@H]1N [H12 SA] | 482 |
| C[C@@H](O)[C@@H](CC(=O)N[C@H]1CCC[C@@H]1C(=O)N[C@H]1CCC[C@@H]1C(N)=O)NC(=O)[C@H]1CCC[C@@H]1NC(=O)[C@H]1CCC[C@@H]1NC(=O)C[C@H](CCC(N)=O)NC(=O)[C@H]1CCC[C@@H]1NC(=O)[C@H]1CCC[C@@H]1N [H12 QT] | 447 |
| CC(C)C[C@@H](CC(=O)N[C@H]1CCC[C@@H]1C(=O)N[C@H]1CCC[C@@H]1C(N)=O)NC(=O)[C@H]1CCC[C@@H]1NC(=O)[C@H]1CCC[C@@H]1NC(=O)C[C@@H](NC(=O)[C@H]1CCC[C@@H]1NC(=O)[C@H]1CCC[C@@H]1N)[C@@H](C)O [H12 TL] | 110 |
| CC(C)C[C@@H](CC(=O)N[C@H]1CCC[C@@H]1C(=O)N[C@H]1CCC[C@@H]1C(N)=O)NC(=O)[C@H]1CCC[C@@H]1NC(=O)[C@H]1CCC[C@@H]1NC(=O)C[C@H](CC(N)=O)NC(=O)[C@H]1CCC[C@@H]1NC(=O)[C@H]1CCC[C@@H]1N [H12 NL] | 214 |
| CC(C)C[C@@H](CC(=O)N[C@H]1CCC[C@@H]1C(=O)N[C@H]1CCC[C@@H]1C(N)=O)NC(=O)[C@H]1CCC[C@@H]1NC(=O)[C@H]1CCC[C@@H]1NC(=O)C[C@H](CCC(N)=O)NC(=O)[C@H]1CCC[C@@H]1NC(=O)[C@H]1CCC[C@@H]1N [H12 QL] | 263 |
| C[C@@H](O)[C@@H](CC(=O)N[C@H]1CCC[C@@H]1C(=O)N[C@H]1CCC[C@@H]1C(=O)N[C@H](CC(=O)N[C@H]1CCC[C@@H]1C(=O)N[C@H]1CCC[C@@H]1C(N)=O)Cc1ccc(O)cc1)NC(=O)[C@H]1CCC[C@@H]1NC(=O)[C@H]1CCC[C@@H]1N [H12 TY] | 132 |
| CC[C@H](C)[C@@H](CC(=O)N[C@H]1CCC[C@@H]1C(=O)N[C@H]1CCC[C@@H]1C(N)=O)NC(=O)[C@H]1CCC[C@@H]1NC(=O)[C@H]1CCC[C@@H]1NC(=O)C[C@H](CC(N)=O)NC(=O)[C@H]1CCC[C@@H]1NC(=O)[C@H]1CCC[C@@H]1N [H12 NI] | 214 |
| NC(=O)C[C@@H](CC(=O)N[C@H]1CCC[C@@H]1C(=O)N[C@H]1CCC[C@@H]1C(=O)N[C@H](CC(=O)N[C@H]1CCC[C@@H]1C(=O)N[C@H]1CCC[C@@H]1C(N)=O)Cc1ccc(O)cc1)NC(=O)[C@H]1CCC[C@@H]1NC(=O)[C@H]1CCC[C@@H]1N [H12 NY] | 364 |
| CC(C)[C@@H](CC(=O)N[C@H]1CCC[C@@H]1C(=O)N[C@H]1CCC[C@@H]1C(N)=O)NC(=O)[C@H]1CCC[C@@H]1NC(=O)[C@H]1CCC[C@@H]1NC(=O)C[C@@H](NC(=O)[C@H]1CCC[C@@H]1NC(=O)[C@H]1CCC[C@@H]1N)[C@@H](C)O [H12 TV] | 208 |
| CSCC[C@@H](CC(=O)N[C@H]1CCC[C@@H]1C(=O)N[C@H]1CCC[C@@H]1C(N)=O)NC(=O)[C@H]1CCC[C@@H]1NC(=O)[C@H]1CCC[C@@H]1NC(=O)C[C@H](CC(N)=O)NC(=O)[C@H]1CCC[C@@H]1NC(=O)[C@H]1CCC[C@@H]1N [H12 NM] | 378 |

More lines, in order of falling Kd, values ahead:

| Kd [µM] | SMILES |
| --- | --- |
| 493 | NC(=O)C[C@@H](CC(=O)N[C@H]1CCC[C@@H]1C(=O)N[C@H]1CCC[C@@H]1C(N)=O)NC(=O)[C@H]1CCC[C@@H]1NC(=O)[C@H]1CCC[C@@H]1NC(=O)C[C@H](CO)NC(=O)[C@H]1CCC[C@@H]1NC(=O)[C@H]1CCC[C@@H]1N [H12 SN] |
| 480 | NC(=O)[C@H]1CCC[C@@H]1NC(=O)[C@H]1CCC[C@@H]1NC(=O)C[C@H](CO)NC(=O)[C@H]1CCC[C@@H]1NC(=O)[C@H]1CCC[C@@H]1NC(=O)C[C@H](CO)NC(=O)[C@H]1CCC[C@@H]1NC(=O)[C@H]1CCC[C@@H]1N [H12 SS] |
| 460 | CC(C)[C@@H](CC(=O)N[C@H]1CCC[C@@H]1C(=O)N[C@H]1CCC[C@@H]1C(N)=O)NC(=O)[C@H]1CCC[C@@H]1NC(=O)[C@H]1CCC[C@@H]1NC(=O)C[C@H](CC(N)=O)NC(=O)[C@H]1CCC[C@@H]1NC(=O)[C@H]1CCC[C@@H]1N [H12 NV] |
| 447 | C[C@@H](CC(=O)N[C@H]1CCC[C@@H]1C(=O)N[C@H]1CCC[C@@H]1C(N)=O)NC(=O)[C@H]1CCC[C@@H]1NC(=O)[C@H]1CCC[C@@H]1NC(=O)C[C@H](CC(N)=O)NC(=O)[C@H]1CCC[C@@H]1NC(=O)[C@H]1CCC[C@@H]1N [H12 NA] |
| 433 | NC(=O)CC[C@@H](CC(=O)N[C@H]1CCC[C@@H]1C(=O)N[C@H]1CCC[C@@H]1C(=O)N[C@@H](CC(=O)O)CC(=O)N[C@H]1CCC[C@@H]1C(=O)N[C@H]1CCC[C@@H]1C(N)=O)NC(=O)[C@H]1CCC[C@@H]1NC(=O)[C@H]1CCC[C@@H]1N [H12 QD] |
| 403 | NC(=O)CC[C@@H](CC(=O)N[C@H]1CCC[C@@H]1C(=O)N[C@H]1CCC[C@@H]1C(=O)N[C@H](CC(=O)N[C@H]1CCC[C@@H]1C(=O)N[C@H]1CCC[C@@H]1C(N)=O)Cc1ccc(O)cc1)NC(=O)[C@H]1CCC[C@@H]1NC(=O)[C@H]1CCC[C@@H]1N [H12 QY] |
| 400 | NC(=O)C[C@@H](CC(=O)N[C@H]1CCC[C@@H]1C(=O)N[C@H]1CCC[C@@H]1C(=O)N[C@@H](CC(=O)O)CC(=O)N[C@H]1CCC[C@@H]1C(=O)N[C@H]1CCC[C@@H]1C(N)=O)NC(=O)[C@H]1CCC[C@@H]1NC(=O)[C@H]1CCC[C@@H]1N [H12 ND] |
| 392 | C[C@@H](CC(=O)N[C@H]1CCC[C@@H]1C(=O)N[C@H]1CCC[C@@H]1C(N)=O)NC(=O)[C@H]1CCC[C@@H]1NC(=O)[C@H]1CCC[C@@H]1NC(=O)C[C@@H](NC(=O)[C@H]1CCC[C@@H]1NC(=O)[C@H]1CCC[C@@H]1N)[C@@H](C)O [H12 TA] |
| 351 | NC(=O)[C@H]1CCC[C@@H]1NC(=O)[C@H]1CCC[C@@H]1NC(=O)C[C@H](Cc1ccc(O)cc1)NC(=O)[C@H]1CCC[C@@H]1NC(=O)[C@H]1CCC[C@@H]1NC(=O)C[C@H](CO)NC(=O)[C@H]1CCC[C@@H]1NC(=O)[C@H]1CCC[C@@H]1N [H12 SY] |
| 340 | CSCC[C@@H](CC(=O)N[C@H]1CCC[C@@H]1C(=O)N[C@H]1CCC[C@@H]1C(N)=O)NC(=O)[C@H]1CCC[C@@H]1NC(=O)[C@H]1CCC[C@@H]1NC(=O)C[C@H](CO)NC(=O)[C@H]1CCC[C@@H]1NC(=O)[C@H]1CCC[C@@H]1N [H12 SM] |
| 299 | CC(C)[C@@H](CC(=O)N[C@H]1CCC[C@@H]1C(=O)N[C@H]1CCC[C@@H]1C(N)=O)NC(=O)[C@H]1CCC[C@@H]1NC(=O)[C@H]1CCC[C@@H]1NC(=O)C[C@H](CO)NC(=O)[C@H]1CCC[C@@H]1NC(=O)[C@H]1CCC[C@@H]1N [H12 SV] |
| 263 | CC[C@H](C)[C@@H](CC(=O)N[C@H]1CCC[C@@H]1C(=O)N[C@H]1CCC[C@@H]1C(N)=O)NC(=O)[C@H]1CCC[C@@H]1NC(=O)[C@H]1CCC[C@@H]1NC(=O)C[C@H](CCC(N)=O)NC(=O)[C@H]1CCC[C@@H]1NC(=O)[C@H]1CCC[C@@H]1N [H12 QI] |
| 200 | CSCC[C@@H](CC(=O)N[C@H]1CCC[C@@H]1C(=O)N[C@H]1CCC[C@@H]1C(N)=O)NC(=O)[C@H]1CCC[C@@H]1NC(=O)[C@H]1CCC[C@@H]1NC(=O)C[C@@H](NC(=O)[C@H]1CCC[C@@H]1NC(=O)[C@H]1CCC[C@@H]1N)[C@@H](C)O [H12 TM] |
| 110 | CC[C@H](C)[C@@H](CC(=O)N[C@H]1CCC[C@@H]1C(=O)N[C@H]1CCC[C@@H]1C(N)=O)NC(=O)[C@H]1CCC[C@@H]1NC(=O)[C@H]1CCC[C@@H]1NC(=O)C[C@@H](NC(=O)[C@H]1CCC[C@@H]1NC(=O)[C@H]1CCC[C@@H]1N)[C@@H](C)O [H12 TI] |
